Results published in patent publication US12325697B2 (Nimbus Clio, Inc., priority 2021, dated 2025).

Experiments:
[1] = target: Recombinant human Cbl-b (aa 36-427) (Homo sapiens (Human), UniProt Q13191); test: Cbl-b Biochemical Assay (TR-FRET); details: read-out: TR-FRET hCbl-b IC50
Procedure, shortened: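 IC50 from 4-parameter fit of % inhibition (DMSO max, reference-inhibitor min), duplicate ten-point series. Compound preincubated with 6 nM Cbl-b, then Src-Zap70 (1-2.5 nM)/0.5 mM ATP reaction 60 min RT; EDTA quench with labelled UBE2D2-Ub and streptavidin-terbium, 60 min, HTRF at 520 nm.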

[2] = target: Recombinant human c-Cbl (aa 47-435) (Homo sapiens (Human), UniProt P22681); test: c-Cbl Biochemical Assay (TR-FRET)
Description: Recombinant human c-Cbl (aa 47-435) was expressed in E. coli, purified and biotinylated in vitro. The protein was diluted to 12 nM in freshly prepared assay buffer consisting of 50 mM HEPES, pH 7.0, 100 mM NaCl, 5 mM MgCl2, 0.01% Triton-X 100, 0.01% BSA and 1 mM DTT. Recombinant human Src (aa 254-536)-[…]-Zap-70 (aa 281-297) fusion protein was expressed in E. coli and purified. Protein was diluted in assay buffer to 5-20 nM and ATP was added to 1 mM. Recombinant human UBE2D2([…]) was expressed in E. coli, purified and ubiquitinated and Bodipy labelled in vitro. Protein was diluted to 200 nM in assay buffer without MgCl2 (or Cisbio PPI buffer). Streptavidin-Terbium was added to 2 nM and EDTA to 10 mM, to provide a binding assay mix. Compounds were dissolved in DMSO and diluted to prepare a ten-point half log dilution series. 100 nl of each compound concentration was dispensed in duplicate in a 384 well black assay plate using acoustic dispensing. Wells for maximum signal controls received 100 nl of DMSO only and wells for minimum controls received 100 nl of a reference inhibitor compound at a final assay concentration of […] to produce 100% inhibition. 5 μl of diluted c-cbl enzyme was added to all wells of the assay plate and incubated at RT for 30 min. The enzyme assay was initiated by addition of 5 μl of Src-Zap/ATP mix to all wells, and the plate incubated at RT for 60-90 min. The enzyme reaction was terminated and the binding reaction was initiated by adding 10 μl of binding assay mix to all wells and incubating the plate at RT for 60 min prior to assay read. Final assay conditions consisted of 6 nM c-cbl, 2.5-10 nM Src-Zap70, 0.5 mM ATP, 1% (v/v) DMSO (enzyme reaction) and 100 nM UBE2D2([…])-Ub-FL-BODIPY, 5 mM EDTA, 1 nM Streptavidin-Tb (binding reaction). The HTRF assay signal was measured at 520 nm on an Envision plate reader, with reference signal at 485 or 620 nm. Data was normalized using maximum and minimum assay controls: % Inhibition=100-(100*((maximum control)-unknown)/(maximum control-minimum control)). A 4-parameter dose-response equation was used to fit the normalized dose-response data and derive an IC50 for test compounds.

Sequence of Recombinant human Cbl-b (aa 36-427) (Q13191 36-427): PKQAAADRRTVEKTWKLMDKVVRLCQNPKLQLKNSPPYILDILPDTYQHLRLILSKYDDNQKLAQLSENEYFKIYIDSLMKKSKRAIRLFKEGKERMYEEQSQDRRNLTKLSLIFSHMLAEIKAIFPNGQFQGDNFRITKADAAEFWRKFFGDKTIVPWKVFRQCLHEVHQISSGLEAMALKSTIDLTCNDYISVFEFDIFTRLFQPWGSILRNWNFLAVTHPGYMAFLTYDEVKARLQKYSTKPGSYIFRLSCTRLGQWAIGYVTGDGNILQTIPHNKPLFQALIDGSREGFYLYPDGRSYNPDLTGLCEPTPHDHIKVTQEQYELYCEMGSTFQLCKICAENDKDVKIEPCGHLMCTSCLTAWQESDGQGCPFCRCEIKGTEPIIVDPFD
Sequence of Recombinant human c-Cbl (aa 47-435) (P22681 47-435): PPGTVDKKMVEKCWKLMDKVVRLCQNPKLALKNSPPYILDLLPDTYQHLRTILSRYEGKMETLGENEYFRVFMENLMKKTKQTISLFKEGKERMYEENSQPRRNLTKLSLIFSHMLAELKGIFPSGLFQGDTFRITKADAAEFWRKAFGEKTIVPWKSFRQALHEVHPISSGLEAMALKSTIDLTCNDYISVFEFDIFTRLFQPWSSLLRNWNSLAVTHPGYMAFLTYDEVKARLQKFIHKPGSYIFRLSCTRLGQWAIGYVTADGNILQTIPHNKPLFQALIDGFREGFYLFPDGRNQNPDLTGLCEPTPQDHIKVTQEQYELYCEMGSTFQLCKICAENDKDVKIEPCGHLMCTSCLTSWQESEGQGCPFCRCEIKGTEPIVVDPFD

SMILES | IC50 [1] [nM] | IC50 [2] [nM]
COc1cc(COCC2(O)CCC2)cc2c1CN(c1cc(-c3ccc(F)cc3-c3nncn3C)cc(C3CC3)n1)C2=O [AIC-11, 2-{6-Cyclopropyl-4-[4-fluoro-2-(4-methyl-1,2,4-triazol-3-yl)phenyl]pyridin-2-yl}-6-{[(1-hydroxycyclobutyl)methoxy]methyl}-4-methoxy-3H-isoindol-1-one] | ≤ 200 | ≤ 200
CO[C@H](C)CNCc1ccc2c(c1)C(=O)N(c1cc(-c3ccc(C#N)cc3-c3nncn3C)cc(C3CC3)n1)C2 [AID-2, 4-{2-Cyclopropyl-6-[6-({[(2R)-2-methoxypropyl]amino}methyl)-1-oxo-3H-isoindol-2-yl]pyridin-4-yl}-3-(4-methyl-1,2,4-triazol-3-yl)benzonitrile] | ≤ 200 | ≤ 200
Cn1cnnc1-c1cc(C#N)ccc1-c1cc(C2CC2)nc(N2Cc3ccc(CNCC(C)(C)O)cc3C2=O)c1 [AIE-1, 4-[2-Cyclopropyl-6-(6-{[(2-hydroxy-2-methylpropyl)amino]methyl}-1-oxo-3H-isoindol-2-yl)pyridin-4-yl]-3-(4-methyl-1,2,4-triazol-3-yl)benzonitrile] | ≤ 200 | ≤ 200
Cn1cnnc1-c1cc(C#N)ccc1-c1cc(C2CC2)nc(N2Cc3ccc(CNCC4(O)CCCC4)cc3C2=O)c1 [AIF-1, 4-{2-Cyclopropyl-6-[6-({[(1-hydroxycyclopentyl)methyl]amino}methyl)-1-oxo-3H-isoindol-2-yl]pyridin-4-yl}-3-(4-methyl-1,2,4-triazol-3-yl)benzonitrile] | ≤ 200 | ≤ 200
Cn1cnnc1-c1cc(C#N)ccc1-c1cc(C2CC2)nc(N2Cc3ccc(CNCC4CCCC4)cc3C2=O)c1 [AIG-1, 4-[2-(6-{[(Cyclopentylmethyl)amino]methyl}-1-oxo-3H-isoindol-2-yl)-6-cyclopropylpyridin-4-yl]-3-(4-methyl-1,2,4-triazol-3-yl)benzonitrile] | ≤ 200 | ≤ 200
COCCNCc1cc2c(cc1F)CN(c1cc(-c3ccc(C#N)cc3-c3nncn3C)cc(C3CC3)n1)C2=O [AIH-2, 4-(2-Cyclopropyl-6-(5-fluoro-6-(((2-methoxyethyl)amino)methyl)-1-oxoisoindolin-2-yl)pyridin-4-yl)-3-(4-methyl-4H-1,2,4-triazol-3-yl)benzonitrile] | ≤ 200 | ≤ 200
Cn1cnnc1-c1cc(F)cc(F)c1-c1cc(C2CC2)nc(N2Cc3ccc(CNCC4(O)CCC4)cc3C2=O)c1 [AII-9, 2-{6-Cyclopropyl-4-[2,4-difluoro-6-(4-methyl-1,2,4-triazol-3-yl)phenyl]pyridin-2-yl}-6-({[(1-hydroxycyclobutyl)methyl]amino}methyl)-3H-isoindol-1-one] | ≤ 200 | ≤ 200
CCOc1cc(-c2ccc(F)cc2-c2nncn2C)cc(N2Cc3c(OC)cc(CNCC4(O)CCC4)cc3C2=O)n1 [AIJ-2, 2-{6-Ethoxy-4-[4-fluoro-2-(4-methyl-1,2,4-triazol-3-yl)phenyl]pyridin-2-yl}-6-({[(1-hydroxycyclobutyl)methyl]amino}methyl)-4-methoxy-3H-isoindol-1-one] | ≤ 200 | ≤ 200
COC[C@@H](C)NCc1ccc2c(c1)C(=O)N(c1cc(-c3ccc(C#N)cc3-c3nncn3C)cc(C3CC3)n1)C2 [AIK-2, 4-{2-Cyclopropyl-6-[6-({[(2R)-1-methoxypropan-2-yl]amino}methyl)-1-oxo-3H-isoindol-2-yl]pyridin-4-yl}-3-(4-methyl-1,2,4-triazol-3-yl)] | ≤ 200 | ≤ 200
CC(C)OCCNCc1ccc2c(c1)C(=O)N(c1cc(-c3ccc(C#N)cc3-c3nncn3C)cc(C3CC3)n1)C2 [AIL-3, 4-[2-Cyclopropyl-6-(6-{[(2-isopropoxyethyl)amino]methyl}-1-oxo-3H-isoindol-2-yl)pyridin-4-yl]-3-(4-methyl-1,2,4-triazol-3-yl)benzonitrile] | ≤ 200 | ≤ 200
CO[C@@H](C)CNCc1ccc2c(c1)C(=O)N(c1cc(-c3ccc(C#N)cc3-c3nncn3C)cc(C3CC3)n1)C2 [AIM-2, 4-{2-cyclopropyl-6-[6-({[(2S)-2-methoxypropyl]amino}methyl)-1-oxo-3H-isoindol-2-yl]pyridin-4-yl}-3-(4-methyl-1,2,4-triazol-3-yl) benzonitrile] | ≤ 200 | ≤ 200
CCOCCNCc1ccc2c(c1)C(=O)N(c1cc(-c3ccc(C#N)cc3-c3nncn3C)cc(C3CC3)n1)C2 [AIN-2, 4-[2-cyclopropyl-6-(6-{[(2-ethoxyethyl)amino]methyl}-1-oxo-3H-isoindol-2-yl)pyridin-4-yl]-3-(4-methyl-1,2,4-triazol-3-yl)benzonitrile] | ≤ 200 | ≤ 200
COCCNCc1cc(F)c2c(c1)C(=O)N(c1cc(-c3ccc(C#N)cc3-c3nncn3C)cc(C3CC3)n1)C2 [AIO-9, 4-[2-Cyclopropyl-6-(4-fluoro-6-{[(2-methoxyethyl)amino]methyl}-1-oxo-3H-isoindol-2-yl)pyridin-4-yl]-3-(4-methyl-1,2,4-triazol-3-yl)benzonitrile] | ≤ 200 | ≤ 200
CC[C@@H](O)CNCc1ccc2c(c1)C(=O)N(c1cc(-c3ccc(C#N)cc3-c3nncn3C)cc(C3CC3)n1)C2 [AIP-2, 4-{2-Cyclopropyl-6-[6-({[(2R)-2-hydroxybutyl]amino}methyl)-1-oxo-3H-isoindol-2-yl]pyridin-4-yl}-3-(4-methyl-1,2,4-triazol-3-yl)benzonitrile] | ≤ 200 | ≤ 200
COCCOCc1ccc2c(c1)C(=O)N(c1cc(-c3ccc(C#N)cc3-c3nncn3C)cc(C3CC3)n1)C2 [AIQ-2, 4-(2-Cyclopropyl-6-(6-((2-methoxyethoxy)methyl)-1-oxoisoindolin-2-yl)pyridin-4-yl)-3-(4-methyl-4H-1,2,4-triazol-3-yl)benzonitrile] | ≤ 200 | ≤ 200
COC[C@H](C)NCc1ccc2c(c1)C(=O)N(c1cc(-c3ccc(C#N)cc3-c3nncn3C)cc(C3CC3)n1)C2 [AIR-2, (S)-4-(2-cyclopropyl-6-(6-(((1-methoxypropan-2-yl)amino)methyl)-1-oxoisoindolin-2-yl)pyridin-4-yl)-3-(4-methyl-4H-1,2,4-triazol-3-yl)benzonitrile] | ≤ 200 | ≤ 200
Cn1cnnc1-c1cc(C#N)ccc1-c1cc(C2CC2)nc(N2Cc3ccc(COCC4CCCC4)cc3C2=O)c1 [AIS-2, 4-(2-{6-[(cyclopentylmethoxy)methyl]-1-oxo-3H-isoindol-2-yl}-6-cyclopropylpyridin-4-yl)-3-(4-methyl-1,2,4-triazol-3-yl)benzonitrile] | ≤ 200 | ≤ 200
CNCc1ccc2c(c1)C(=O)N(c1cc(-c3ccc(C#N)cc3-c3nncn3C)cc(C3CC3)n1)C2 [AIT-1, 4-(2-cyclopropyl-6-{6-[(methylamino)methyl]-1-oxo-3H-isoindol-2-yl}pyridin-4-yl)-3-(4-methyl-1,2,4-triazol-3-yl)benzonitrile] | ≤ 200 | ≤ 200
Cn1cnnc1-c1cc(Cl)ccc1-c1cc(C2CC2)nc(N2Cc3ccc(CO)cc3C2=O)c1 [AIU-1, 2-(4-(4-Chloro-2-(4-methyl-4H-1,2,4-triazol-3-yl)phenyl)-6-cyclopropylpyridin-2-yl)-6-(hydroxymethyl)isoindolin-1-one] | ≤ 200 | ≤ 200
